Assays:
[1] = tested on: 50 different protein kinases; test: Kinase inhibition profiling against 50 protein kinases (University of Dundee); assay type: biochemical, human; settings: 25 μM
Protocol: In order to gain a greater understanding of potential off-target interactions of GKI-1, we undertook more rigorous kinase inhibition profiling (International Centre for Kinase Profiling, University of Dundee) where GKI-1 was tested against 50 different protein kinases, carefully selected to provide representative sampling across the human kinome.
Figure S9. Kinase phylogeny vs GKI-1 inhibitory activity
Kinome render [Manning et al. (2002)] was used to generate a phylogenetic map with overlapping 25
µM GKI-1 inhibitory activity plotted against 50 kinases, carefully selected to represent the human
kinome. Illustration reproduced courtesy of Cell Signaling Technology, Inc. (www.cellsignal.com)
(1 picture or pasted object on this page, not shown here)

[2] = tested on: HeLa cells; test: Time-lapse video microscopy of HeLa cells; assay type: cell-based, human
Protocol: Figure 5 In cellulo efficacy of GKI-1 in HeLa cells A. HeLa cells were transfected with either non-targeting (siSCR) or GWL targeting siRNAs (siGWL). GWL and loading control protein (Tubulin) were detected by western analysis. B., C. HeLa cells treated with siSCR or siGWL (48-h) were arrested in mitosis using nocodazole and treated with DMSO, 25 μM or 50 μM GKI-1. Immunofluorescent staining of p-ENSA (Red) and GWL (Green) was achieved using anti-phospho(Ser67)-ENSA and anti-MASTL(GWL, RIPLY 74C) antibodies and DAPI was used to stain the nucleus (Blue). (C) Quantitation of the IF p-ENSA and GWL signals was performed using the ScanR High-Content Screening Station. The Circularity and Total DAPI parameters were used to identify mitotic cells. D., E. HeLa cells treated with siSCR or siGWL (48-h) were treated with DMSO, 25 or 50 μM GKI-1. 4-h after treatment, μ-slides were mounted onto an Olympus IX73 microscope, within a temperature-controlled 37°C chamber maintained at 5% CO2, and images were acquired every 5-min for 8.5-h. Time-lapse videos were generated using ImageJ and cellular phenotypes recorded: Mitotic events (D), mitotic arrest (E, F) and failed cytokinesis G. F. Kymographs showing an example of typical phenotypes were generated by capturing images every 5 minutes for 80 minutes. Image sequences were chosen to start just before mitotic entry. (B - G) A total of 3 - 5 biological replicates were completed per condition and the t-test statistical module of Prism 6.0 was used to determine p-values (ns (not statistically significant): P > 0.05; *: P ≤ 0.05; **: P ≤ 0.01; ***: P ≤ 0.001).
HeLa cells were plated on glass coverslips and then transfected with siRNAs using Lipofectamine RNAiMax [ThermoFisher Scientific]. 48 hours after treatment, cells to be used for immunofluorescence were treated with nocodozole and DMSO, or GKI-1. After fixing and staining with antibodies, cells were visualised with a ScanR High Content Screening Station [Olympus Life Science]. Time-lapse videos for treated cells were recorded on an Olympus IX3 microscope fitted with an Ocra-Flash 4.0 CMOS camera [Hamatsu]. […]
Immunofluorescence and Time-lapse video microscopy
2.5 X 105 HeLa cells were plated onto glass coverslips in a 6-well plate, or 4-well µ-slides [Ibidi GmbH] were seeded with 5 X 104 cells and then transfected with Qiagen AllStars negative control or Hs_MASTL_6 siRNAs (14) using Lipofectamine RNAiMax [ThermoFisher Scientific]. Media was exchanged with fresh media the next day. 48 hours after siRNA treatment, only cells to be used for immunofluorescence (IF) were treated with nocodazole (200 ng/mL) and DMSO or GKI-1 at the indicated concentration. For IF, cells were fixed, stained with primary mouse anti-GWL and rabbit anti-p-ENSA antibodies, secondary Alexa Fluor 647-conjugated anti-rabbit and Alexa Fluor 488-conjugated anti-mouse antibodies, DAPI and mounted onto glass microscope slides using Diamond Antifade Mountant [Molecular Probes, ThermoFisher Scientific]. Quantitation of IF images was performed using the ScanR High-Content Screening Station [Olympus Life Science] which acquired 220, 40x images per cover slip. Data were normalised against the AllStars negative control siRNA treated cells and values obtained from three biological replicates were reported as the mean ± 1 S.D. To assist with selecting mitotic cells, ScanR imaging software was utilised to gate for mitotic cells using the circularity factor and total […]
To produce time-lapse videos, after 48 hours and cell treatment with DMSO or compound (cells were treated with GKI-1 for 4-h before image acquisition) cells plated in 4-well µ-slides were imaged every 5 minutes for 8.5 hours on an Olympus IX73 microscope, using a 40 x 0.95NA air objective, and recorded on an Orca-Flash 4.0 CMOS camera [Hamatsu]. The computer program Fiji (http://www.fiji.sc/Fiji) was used to generate videos from […]
image sequence TIF files. […]

[3] = tested on: HeLa cells; test: Immunofluorescence of p-ENSA (Ser67) in nocodazole-arrested HeLa cells; assay type: cell-based, human
Text: To more directly address the presence of other off-target effects, and / or any level of compound toxicity, we conducted a more comprehensive phenotypic analysis of GKI-1 and GWL siRNA (siGWL, Figure 5A) treated cells by immunofluorescence (IF) and time-lapse video microscopy. Using an antibody that specifically detects phosphorylation of ENSA-Ser67 (p-ENSA), we established an IF assay in order to measure GWL kinase activity in HeLa cells. We treated the cells with nocodazole in order to arrest cells in mitosis, the cell cycle stage where GWL is maximally active (Figure 5B).
Figure 5 In cellulo efficacy of GKI-1 in HeLa cells A. HeLa cells were transfected with either non-targeting (siSCR) or GWL targeting siRNAs (siGWL). GWL and loading control protein (Tubulin) were detected by western analysis. B., C. HeLa cells treated with siSCR or siGWL (48-h) were arrested in mitosis using nocodazole and treated with DMSO, 25 μM or 50 μM GKI-1. […] (C) Quantitation of the IF p-ENSA and GWL signals was performed using the ScanR High-Content Screening Station. […] Time-lapse videos were generated using ImageJ and cellular phenotypes recorded: Mitotic events (D), mitotic arrest (E, F) and failed cytokinesis G. F. Kymographs showing an example of typical phenotypes were generated by capturing images every 5 minutes for 80 minutes. […]
HeLa cells were plated on glass coverslips and then transfected with siRNAs using Lipofectamine RNAiMax [ThermoFisher Scientific]. […] Time-lapse videos for treated cells were recorded on an Olympus IX3 microscope fitted with an Ocra-Flash 4.0 CMOS camera [Hamatsu]. […]
hGWLFL, 100 µl of lysate was diluted 5-fold with IP buffer and combined with 3 µl anti-Flag M2 magnetic Dynabeads [Sigma-Aldrich] overnight at 4 °C. […] The reaction was stopped by adding SDS loading buffer and analysed by western blot: p-ENSA and GWL levels were detected using the anti-phospho(Ser67)-ENSA and anti-MASTL(GWL, Prestige) antibodies. Activity was measured as the p-ENSA/GWL ratio and % kinase activity was normalised to the DMSO control. […]

off-target interactions in kinase panel [1]: several off-target interactions | sensitivity of treated cells to fluorescent light ([2]; blue to green spectrum, live cell imaging): highly sensitive
Structure (SMILES): Clc1ccc(Nc2cccc(-c3cn[nH]c3)c2)cc1 [GKI-1, N-(4-chlorophenyl)-3-(1H-pyrazol-4-yl)aniline]
mitotic events ([2]; 50 μM): effect comparable to siGWL treatment | time remaining in prometaphase/metaphase ([2]; 50 μM): two to six | mitotic events ([2]; 25 and 50 μM, vs scrambled control siRNA): general decrease in mitotic events | failure in cytokinesis ([2]; GKI-1 treated cells compared with GWL depletion): only rarely observed | mitotic progression ([2]; relative to SCR-treated cells): significant delay in mitotic progression | reduction in p-ENSA levels compared to control ([3]; 25 μM, nocodazole-arrested HeLa cells): 2 fold | p-ENSA signal ([3]; 50 μM, nocodazole-arrested HeLa cells): levels comparable to siGWL treated cells | levels of p-ENSA by immunofluorescence ([3]; co-incubation with nocodazole, 25 and 50 μM): dose-dependent decrease

From article PMC5342071, “A first generation inhibitor of human Greatwall kinase, enabled by structural and functional characterisation of a minimal kinase domain construct” (Oncotarget, 2016)
